Assay [1] concerns HEK293 cells cotransfected with the FOP control vector. The assay is described as follows: HEK293 FOP assay (control reporter with non-functional TCF elements). In kind it is cell-based. To be noted: Homo sapiens, 16 hours. The method in brief:
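Compound series from 50 μM down to 15 nM, prediluted in DMSO then 50-fold into CAFTY buffer (pH 7.4, 2 mM Ca2+, 0.01% BSA), tested alongside TOP cells on a Geneticin-selected HEK293 FOP line whose TCF elements are replaced by a random sequence; recombinant human Wnt-3a applied at 2500-5 ng/ml.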

Another assay concerns the target T1, TNKS1 (Homo sapiens, UniProt O95271).
T1 construct: purchased BPS Bioscience, San Diego, USA 80579 (TNKS1 Histone Ribosylation Assay Kit)
T1 sequence (O95271 1-1327): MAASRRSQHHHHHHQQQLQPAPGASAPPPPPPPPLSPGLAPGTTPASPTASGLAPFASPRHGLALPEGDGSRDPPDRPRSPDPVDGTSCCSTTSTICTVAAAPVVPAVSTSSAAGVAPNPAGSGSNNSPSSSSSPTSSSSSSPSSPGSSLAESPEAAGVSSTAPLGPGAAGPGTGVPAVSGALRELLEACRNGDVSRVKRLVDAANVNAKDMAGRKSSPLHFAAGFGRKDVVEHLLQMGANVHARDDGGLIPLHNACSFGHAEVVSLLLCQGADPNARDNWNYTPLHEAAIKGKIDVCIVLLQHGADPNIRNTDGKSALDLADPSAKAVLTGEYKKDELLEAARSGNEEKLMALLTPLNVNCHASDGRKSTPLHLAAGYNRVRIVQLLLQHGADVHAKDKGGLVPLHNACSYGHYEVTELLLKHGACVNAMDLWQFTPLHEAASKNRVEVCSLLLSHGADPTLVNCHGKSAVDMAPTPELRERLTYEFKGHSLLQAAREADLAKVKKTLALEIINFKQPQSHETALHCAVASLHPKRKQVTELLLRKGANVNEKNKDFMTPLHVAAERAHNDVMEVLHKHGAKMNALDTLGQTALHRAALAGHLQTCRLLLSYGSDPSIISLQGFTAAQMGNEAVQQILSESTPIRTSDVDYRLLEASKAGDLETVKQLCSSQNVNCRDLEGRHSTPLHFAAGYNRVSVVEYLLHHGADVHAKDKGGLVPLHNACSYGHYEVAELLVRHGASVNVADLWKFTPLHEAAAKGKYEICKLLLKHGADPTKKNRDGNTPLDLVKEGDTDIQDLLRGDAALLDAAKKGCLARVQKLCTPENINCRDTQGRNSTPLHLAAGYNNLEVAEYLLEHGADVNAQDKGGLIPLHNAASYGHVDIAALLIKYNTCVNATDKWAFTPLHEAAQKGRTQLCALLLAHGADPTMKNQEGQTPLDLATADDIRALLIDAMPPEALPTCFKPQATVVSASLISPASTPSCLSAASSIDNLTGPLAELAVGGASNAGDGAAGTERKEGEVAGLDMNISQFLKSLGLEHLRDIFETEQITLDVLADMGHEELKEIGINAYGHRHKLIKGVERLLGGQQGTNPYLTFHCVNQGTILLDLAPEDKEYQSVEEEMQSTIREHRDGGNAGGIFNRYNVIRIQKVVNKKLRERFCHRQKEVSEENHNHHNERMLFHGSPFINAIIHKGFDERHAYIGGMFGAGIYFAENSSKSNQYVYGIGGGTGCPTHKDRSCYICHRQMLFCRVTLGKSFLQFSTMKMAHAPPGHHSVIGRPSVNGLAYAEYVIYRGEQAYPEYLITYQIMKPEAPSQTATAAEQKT
The assay is described as follows: TNKS1 Assay B (auto-parsylation, [3H]-NAD+ SPA). In kind it is biochemical. To be noted: 6 nM TNKS1, auto-parsylation, over night at room temperature.

We go through 18 compounds from US20180148418A1, “AMIDO-SUBSTITUTED CYCLOHEXANE DERIVATIVES” (Bayer Pharma Aktiengesellschaft, priority 2015, published 2018).

For the compound `CC1CN(C(=O)c2nc[nH]c2C(=O)N[C@H]2CC[C@@]3(CCN(c4ccc(F)cc4Cl)C3=O)CC2)CCS(=O)(=O)C1` (stereo partly drawn) [Example 183, N-[(trans)-2-(2-chloro-4-fluorophenyl)-1-oxo-2-azaspiro[4.5]dec-8-yl]-4-[(6-methyl-1,1-dioxido-1,4-thiazepan-4-yl)carbonyl]-1H-imidazole-5-carboxamide], the IC50 is at least 50000 nM in assay [1] and 700 nM at TNKS1.

As for `Cc1cc(C)n2ncc(C(=O)N[C@H]3CC[C@@]4(CCN(c5cccc(Cl)c5)C4=O)CC3)c2n1` [Example 270, N-[(trans)-2-(3-chlorophenyl)-1-oxo-2-azaspiro[4.5]dec-8-yl]-5,7-dimethylpyrazolo[1,5-a]pyrimidine-3-carboxamide], the IC50 in assay [1] is at least 50000 nM; against TNKS1, 160 nM.

As to `CNC(=O)c1nc[nH]c1C(=O)N[C@H]1CC[C@@]2(CCN(c3ccccc3Cl)C2=O)CC1` [Example 264, N^5-[(trans)-2-(2-chlorophenyl)-1-oxo-2-azaspiro[4.5]dec-8-yl]-N^4-methyl-1H-imidazole-4,5-dicarboxamide], the IC50 in assay [1] worked out at 33000 nM; against TNKS1, 20 nM.

Consider `Cc1ccnc2c(C(=O)N[C@H]3CC[C@@]4(CCN(c5ccc(F)cc5Cl)C4=O)CC3)cnn12` [Example 222, N-[(trans)-2-(2-chloro-4-fluorophenyl)-1-oxo-2-azaspiro[4.5]dec-8-yl]-7-methylpyrazolo[1,5-a]pyrimidine-3-carboxamide], for which the IC50 is at least 50000 nM in assay [1] and 13 nM on TNKS1.

As to `Cc1cc(C(F)F)n2ncc(C(=O)N[C@H]3CC[C@@]4(CCN(c5ccc(F)cc5Cl)C4=O)CC3)c2n1` [Example 224, N-[(trans)-2-(2-chloro-4-fluorophenyl)-1-oxo-2-azaspiro[4.5]dec-8-yl]-7-(difluoromethyl)-5-methylpyrazolo[1,5-a]pyrimidine-3-carboxamide], the values for the IC50 (in assay [1]; on TNKS1) were at least 50000 nM and 14 nM, respectively.

As to `O=C(NCCO)c1nc[nH]c1C(=O)N[C@H]1CC[C@H](C(=O)Nc2ccc(F)cc2Cl)CC1` [Example 18, N^5-{trans-4-[(2-chloro-4-fluorophenyl)carbamoyl]cyclohexyl}-N^4-(2-hydroxyethyl)-1H-imidazole-4,5-dicarboxamide], the half-inhibitory concentration (IC50) in assay [1] is at least 50000 nM; against TNKS1, 94 nM.

For `CNC(=O)c1nc[nH]c1C(=O)N[C@H]1CC[C@H](C(=O)Nc2ccncc2Cl)CC1` [Example 11, N^5-{trans-4-[(3-chloropyridin-4-yl)carbamoyl]cyclohexyl}-N^4-methyl-1H-imidazole-4,5-dicarboxamide], the values for the IC50 (in assay [1]; at TNKS1) were at least 50000 nM and 260 nM, respectively.

With `COc1ccn2ncc(C(=O)N[C@H]3CC[C@@]4(CCN(c5ccc(F)cc5Cl)C4=O)CC3)c2n1` [Example 218, N-[(trans)-2-(2-chloro-4-fluorophenyl)-1-oxo-2-azaspiro[4.5]dec-8-yl]-5-methoxypyrazolo[1,5-a]pyrimidine-3-carboxamide], the half-inhibitory concentration (IC50) in assay [1] was at least 50000 nM; against TNKS1, 14 nM.

For the compound `O=C(N[C@H]1CC[C@H](C(=O)Nc2ccc(F)cc2Cl)CC1)c1[nH]cnc1C(=O)N1CC2(COC2)C1` [Example 14, N-{trans-4-[(2-chloro-4-fluorophenyl)carbamoyl]cyclohexyl}-4-(2-oxa-6-azaspiro[3.3]hept-6-ylcarbonyl)-1H-imidazole-5-carboxamide], the half-maximal inhibitory concentration (IC50) in assay [1] was at least 50000 nM; on TNKS1, 63 nM.

With `C[C@]1(C(=O)Nc2ccc(F)cc2Cl)CC[C@H](NC(=O)c2cnn3cccnc23)CC1` [Example 179, N-{trans-4-[(2-chloro-4-fluorophenyl)carbamoyl]-4-methylcyclohexyl}pyrazolo[1,5-a]pyrimidine-3-carboxamide], the results for the IC50 (in assay [1]; on TNKS1) were at least 50000 nM and 970 nM, respectively.

With `O=C(NCC(F)(F)F)c1nc[nH]c1C(=O)N[C@H]1CC[C@H](C(=O)Nc2ccc(F)cc2Cl)CC1` [Example 21, N^5-{trans-4-[(2-chloro-4-fluorophenyl)carbamoyl]cyclohexyl}-N^4-(2,2,2-trifluoroethyl)-1H-imidazole-4,5-dicarboxamide], the figures for the IC50 (in assay [1]; at TNKS1) were at least 50000 nM and 37 nM, respectively.

For the compound `O=C(N[C@H]1CC[C@H](C(=O)Nc2ccc(F)cc2Cl)CC1)c1cnn2ccccc12` [Example 205, N-{trans-4-[(2-chloro-4-fluorophenyl)carbamoyl]cyclohexyl}pyrazolo[1,5-a]pyridine-3-carboxamide], the figures for the half-maximal inhibitory concentration (IC50) (in assay [1]; against TNKS1) were 25000 nM and above 10000 nM, respectively.

For `NC(=O)c1nc[nH]c1C(=O)N[C@H]1CC[C@@]2(CCN(c3ccc(F)cc3Cl)C2=O)CC1` [Example 186, N^5-[(trans)-2-(2-chloro-4-fluorophenyl)-1-oxo-2-azaspiro[4.5]dec-8-yl]-1H-imidazole-4,5-dicarboxamide], the IC50 in assay [1] was at least 50000 nM; against TNKS1 it was 18 nM.

For the compound `Cc1ccn2ncc(C(=O)N[C@H]3CC[C@@]4(CCN(c5ccc(F)cc5Cl)C4=O)CC3)c2n1` [Example 221, N-[(trans)-2-(2-chloro-4-fluorophenyl)-1-oxo-2-azaspiro[4.5]dec-8-yl]-5-methylpyrazolo[1,5-a]pyrimidine-3-carboxamide], the IC50 was found to be 18000 nM in assay [1] and 11 nM on TNKS1.

Take `CC1CCN(CCNC(=O)c2nc[nH]c2C(=O)N[C@H]2CC[C@H](C(=O)Nc3ccc(F)cc3Cl)CC2)CC1` [Example 12, N^5-{trans-4-[(2-chloro-4-fluorophenyl)carbamoyl]cyclohexyl}-N^4-[2-(4-methylpiperidin-1-yl)ethyl]-1H-imidazole-4,5-dicarboxamide]: the results for the IC50 (in assay [1]; against TNKS1) were at least 50000 nM and 3.7 nM, respectively.

For `CCNC(=O)c1nc[nH]c1C(=O)N[C@H]1CC[C@@]2(CCN(c3ccccc3Cl)C2=O)CC1` [Example 258, N^5-[(trans)-2-(2-chlorophenyl)-1-oxo-2-azaspiro[4.5]dec-8-yl]-N^4-ethyl-1H-imidazole-4,5-dicarboxamide], the IC50 in assay [1] is at least 50000 nM; at TNKS1, 13 nM.

As to `CN1CC2(C1)CN(C(=O)c1nc[nH]c1C(=O)N[C@H]1CC[C@@]3(CCN(c4ccc(F)cc4Cl)C3=O)CC1)C2` [Example 185, N-[(trans)-2-(2-chloro-4-fluorophenyl)-1-oxo-2-azaspiro[4.5]dec-8-yl]-4-[(6-methyl-2,6-diazaspiro[3.3]hept-2-yl)carbonyl]-1H-imidazole-5-carboxamide], the IC50 in assay [1] is at least 50000 nM; against TNKS1 it was 8.7 nM.

Regarding `CC(C)NC(=O)c1nc[nH]c1C(=O)N[C@H]1CC[C@H](C(=O)Nc2ccc(F)cc2Cl)CC1` [Example 20, N^5-{trans-4-[(2-chloro-4-fluorophenyl)carbamoyl]cyclohexyl}-N^4-isopropyl-1H-imidazole-4,5-dicarboxamide], the IC50 in assay [1] is at least 50000 nM; at TNKS1, 90 nM.

By IC50 is commonly meant the concentration that gives 50% inhibition.
